Test results reported in patent publication US20240207410A1, “STABILIZED LIQUID COMPOSITIONS COMPRISING A LEVODOPA-TYROSINE CONJUGATE AND USES THEREOF” (NeuroDerm, Ltd., priority 2021, published 2024).
Where a SMILES comes first, the peptide text is derived from it. [ ]: non-standard residue; d: D form. Dopa = N[C@@H](Cc1ccc(O)c(O)c1)C(=O)O

Key:
[1] = test system: red blood cells (RBC); assay: Blood/plasma ratio, partitioning into red blood cells, rat blood ex vivo; type: in vitro ADME
[2] = test system: red blood cells (RBC); assay: Blood/plasma ratio, partitioning into red blood cells, minipig blood ex vivo; type: in vitro ADME; settings: for KRBC/PL: 50 ng/mL
[3] = Maximal Tolerated Dose (MTD), bolus SC; type: in vivo; settings: in vivo; study MTD Exp 001, Rat/SD, bolus SC, 90, 150, 300, 625 mg/kg
Description: (§1) In vivo non-clinical safety studies were conducted in both the rat and minipig. Additionally, an assessment of the local infusion site reaction of LD-Tyr was performed as part of a PK study in domestic pigs.

[4] = test system: Rat/SD; assay: Maximal Tolerated Dose (MTD), bolus SC; type: in vivo; settings: study MTD Exp 001, Rat/SD, bolus SC, highest dose (625 mg/kg), males
Description: as §1

[5] = test system: Pig/domestic; assay: Local infusion site reaction as part of a PK study (ND 2-20-102); type: in vivo; settings: study ND 2-20-102, 200 mg/mL at 9 mL (1800 mg/day)
Description: as §1

[6] = in vivo; settings: female, pig, sc, analyte LD-Tyr
Description: A series of PK studies was completed in domestic pigs using several LD-Tyr formulations, as detailed in Table 26, and dosing regimens, as detailed in Table 27. The PK profile of LD-Tyr as well as the LD resulting therefrom was determined following 18-hour continuous SC infusion to female domestic pigs. Each formulation was administered at one infusion site per animal using a Crono-ND infusion pump (Canè SpA Medical Technology, Rivoli, Italy) connected to an infusion set (Accu-chek®, FlexLink, Roche).
(§2) Blood samples for the determination of LD-Tyr and LD plasma levels were collected from the pigs at the following timepoints: […]

[7] = PK of high concentration LD-Tyr formulations comprising TRIS, 0.5% CD (Example 15B); type: in vivo, domestic pig; settings: female, pig, plasma, sc, analyte LD-Tyr, 18-hour continuous SC infusion
Description: A series of PK and local-tox studies was completed in domestic pigs using several high concentration LD-Tyr formulations comprising 0.5% CD and varying amounts of TRIS, as detailed in Table 33, and dosing regimens, as detailed in Table 34. The PK profile of LD-Tyr as well as the LD resulting therefrom was determined following 18-hour continuous SC infusion to female domestic pigs. Each formulation was administered at one infusion site per animal using a Crono-ND infusion pump (Canè SpA Medical Technology, Rivoli, Italy) connected to an infusion set (Accu-chek®, FlexLink, Roche).
as §2

[8] = PK of formulations with varying concentrations of LD-Tyr and CD (Example 16); type: in vivo, domestic pig; settings: female, pig, plasma, sc, analyte LD-Tyr, 18-hour continuous SC infusion
Description: (§3) A series of PK and local site reaction studies was completed in domestic pigs using several concentrations LD-Tyr formulations comprising varying amounts of CD, as detailed in Table 37, and dosing regimens, as detailed in Table 38. The PK profile of LD-Tyr, as well as the LD resulting therefrom, was determined following 18-hour continuous SC infusion to female domestic pigs. Each formulation was administered at one infusion site per animal using a Crono-ND infusion pump (Canè SpA Medical Technology, Rivoli, Italy) connected to an infusion set (Accu-chek®, FlexLink, Roche).
as §2

[9] = PK following bolus and 2-hr continuous SC administration of 30% LD-Tyr (Example 18); type: in vivo, domestic pig; settings: pig; for AUC(0-t) / Cmax / Tmax: female, plasma, sc, analyte LD-Tyr, 30/1 % w/v, bolus and 2-hr continuous SC administration
Description: as §3, with “local-tox” for “local site reaction”, “42,” for “37,”, “43. […]” for “38. The PK profile of LD-Tyr, as well as the LD resulting therefrom, was determined following 18-hour continuous SC infusion to female domestic pigs.”
Blood samples for the determination of LD-Tyr and LD plasma levels were collected from the pigs at the following timepoints:
0 (pre-dose), 10 min (end of bolus), 15 min, 30 min, 45 min, 60 min, 75 min, 90 min, 120 min and 240 min following the beginning of the bolus administration.

[10] = PK of LD following 18-hr SC administration of LD-Tyr in a formulation comprising ethanol (Example 22); type: in vivo, domestic pig; settings: for AUC(0-t) / Cmax / Tmax: pig, plasma, analyte LD-Tyr, 18-hr continuous SC, formulation comprising ethanol
Description: The objective of this study is to determine the pharmacokinetics (PK) of LD-Tyr following an 18-hr continuous subcutaneous (SC) administration in domestic pigs of a formulation comprising 30& LD-Tyr and ethanol. Table 53 provides the LD-Tyr formulation tested in this study.
Animals were dosed with 2700 or 5400 mg of LD-Tyr in the formulation of Table 53 in an 18-hr continuous subcutaneous administration in an infusion volume of 9 or 18 ml (9 mL×2 sites).

[11] = LD-Tyr/CD 30/0.5 % w/v, daily dose 2775/37.5 mg, n = 2
[12] = LD-Tyr/CD 37/0.5 % w/v, daily dose 2640/30 mg, n = 3
[13] = LD-Tyr/CD 44/0.5 % w/v, daily dose 2700/45 mg, n = 1
[14] = 2640 mg/day, LD-Tyr/CD 44/1 % w/v, daily dose 2640/60 mg, n = 4
[15] = 2700 mg/day, LD-Tyr/CD 30/0.5 % w/v, daily dose 2700/45 mg, n = 5
[16] = 2700 mg/day, LD-Tyr/CD 30/[…] w/v, daily dose 2700/135 mg, n = 5
[17] = bolus volume 0.7 mL, bolus dose 210/7 mg, daily dose 510/17 mg
[18] = bolus volume 1.2 mL, bolus dose 360/12 mg, daily dose 660/22 mg
[19] = bolus volume 1.7 mL, bolus dose 510/17 mg, daily dose 810/27 mg
[20] = 2700 mg, LD-Tyr/CD daily dose 2700/117 mg, n = 5
[21] = 5400 mg, LD-Tyr/CD daily dose 5400/234 mg, n = 3

## N[C@@H](Cc1ccc(O)c(O)c1)C(=O)N[C@@H](Cc1ccc(O)cc1)C(=O)O [LD-Tyr, levodopa-tyrosine (LD-Tyr) conjugate of the formula (II)] (H-[Dopa]-Tyr-OH)
[1]; rat blood
  KRBC/PL versus time of incubation: increased with the time of incubation
  RBC binding: limited RBC binding
[1]; rat blood, 50, 150 and 2500 ng/mL
  partition coefficient between RBC and plasma (KRBC/PL): below five
[2]; minipig blood
  RBC binding: limited RBC binding
[2]; minipig blood, after 30 minutes (declined)
  KRBC/PL: 0.0
[2]; minipig blood, at 15 and 30 minutes
  KRBC/PL: 1
[2]; minipig blood, 50, 150 and 2500 ng/mL
  partition coefficient between RBC and plasma (KRBC/PL): below five
[2]; minipig blood, two highest concentrations (150 and 2500 ng/mL)
  KRBC/PL versus time of incubation: increased with the time of incubation
[3]
  MTD: 300 mg/kg
[4]
  Mortality: Mortality (1/4 males)
[5]
  subacute inflammation in the subcutis: minimal to mild
[6]
  Tmax: 10.4 h
[7]; [11]
  AUC(0-t): 4800 ng·h/mL
  Cmax: 445 ng/mL
  Tmax: 10 h
[7]; [12]
  AUC(0-t): 5600 ng·h/mL
  Cmax: 491 ng/mL
  Tmax: 15 h
[7]; [13]
  AUC(0-t): 534 ng·h/mL
  Cmax: 49.6 ng/mL
  Tmax: 2 h
[8]; [14]
  AUC(0-t): 8130 ng·h/mL
  Cmax: 738 ng/mL
  Tmax: 11.6 h
[8]; [15]
  AUC(0-t): 5450 ng·h/mL
  Cmax: 453 ng/mL
  Tmax: 8.8 h
[8]; [16]
  AUC(0-t): 13500 ng·h/mL
  Cmax: 986 ng/mL
  Tmax: 12.4 h
[9]; [17]
  AUC(0-t): 1180 ng·h/mL
  Cmax: 573 ng/mL
  Tmax: 1.3 h
[9]; [18]
  AUC(0-t): 1630 ng·h/mL
  Cmax: 933 ng/mL
  Tmax: 0.9 h
[9]; [19]
  AUC(0-t): 2430 ng·h/mL
  Cmax: 1350 ng/mL
  Tmax: 1.2 h
[9]; in vivo
  systemic exposure to LD versus bolus injection volume: dose-proportional increase
[10]; 2700 and 5400 mg, 18-hr continuous SC administration
  dose proportionality: dose proportionality
[10]; [20]
  AUC(0-t): 8210 ± 4120 ng·h/mL
  Cmax: 707 ± 283 ng/mL
  Tmax: 14 h
[10]; [21]
  AUC(0-t): 21200 ± 8570 ng·h/mL
  Cmax: 1610 ± 902 ng/mL
  Tmax: 14 h
